Test results: paper PMC10786919, “Design-rules for stapled peptides with in vivo activity and their application to Mdm2/X antagonists” (Nature Communications, 2024)
Values after ≈ are worked out from the molar mass of the structure shown. Like-named read-outs stand apart in the source and are kept apart here. Positions of bridges follow the written chain, without caps; N, C: chain ends. Non-standard residues stand in square brackets, D forms with d. Residues, ends and D or L forms follow the SMILES beside them. Phe(3,4-Cl2) = N[C@@H](Cc1ccc(Cl)c(Cl)c1)C(=O)O; Lys(N3) = [N-]=[N+]=NCCCC[C@H](N)C(=O)O; R8 = C=CCCCCCC[C@@](C)(N)C(=O)O; Cba = N[C@@H](CC1CCC1)C(=O)O; S5 = C=CCCC[C@](C)(N)C(=O)O; Aib = CC(C)(N)C(=O)O; βAla = NCCC(=O)O

Tests used:
[1] = Lactate dehydrogenase (LDH) release assay; format: cell-based
Method in brief: (§1)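 LDH release, fluorometric membrane-integrity read-out; HCT116 with stable p53-responsive β-lactamase reporter; 8000 cells/well; 0.5% DMSO final; geometric mean, n≥3 biological replicates.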

[2] = tested on: HCT116 cells; test: Lactate dehydrogenase (LDH) release assay; format: cell-based
Method in brief: as §1

[3] = Solubility assay (kinetic solubility, PBS pH 7); format: physicochemical; conditions: pH 7, PBS; for solubility kinetic: pH 7, aqueous buffer, kinetic from dmso stock, read-out: Solubility
Method in brief: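 Next, measure peak areas of sample and standard. Finally, multiply their ratio by the standard concentration to obtain solubility (µM).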

[4] = in vitro
Method in brief: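 Azido-peptide permeability was read as loss of NanoBRET signal (donor 450 nm, acceptor 610 nm) after adding NanoBret618-azide at 10 μM final.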

[5] = physchem
[6] = Experimental LogD (partition coefficient); conditions: for logD: Partition Coeff LogD
[7] = Nanoclick permeability assay EC50
[8] = 0% FBS 4Hr, read-out: LDH: Cytotoxicity assay: EC50
[9] = 10% FBS 4Hr, read-out: LDH: Cytotoxicity assay: EC50

| Structure (SMILES) | EC50 ([1]; LDH: Cytotoxicity assay: EC50) | LDH: Cytotoxicity assay: % Effect [2] | solubility kinetic [3] | cell entry EC50 [4, 7] | EPSA [5] | logD ([6]; not stated) | EC50 [1, 8] | EC50 [1, 9] | LDH: Cytotoxicity assay: % Effect ([2]; 0% FBS 4Hr) | LDH: Cytotoxicity assay: % Effect ([2]; 10% FBS 4Hr) | cell entry EC50 [4] | Solubility [3] | Partition Coeff LogD [6] | logD ([6]; experimental) |
| --- | --- | --- | --- | --- | --- | --- | --- | --- | --- | --- | --- | --- | --- | --- |
| CC(=O)N[C@@H](CCCCN=[N+]=[N-])C(=O)NCCC(=O)N[C@@H](CC(C)C)C(=O)N[C@H](C(=O)N[C@@H](Cc1ccccc1)C(=O)N[C@]1(C)CCCCCCC=CCCC[C@@](C)(C(=O)N[C@@H](CO)C(=O)NC(C)(C)C(=O)N[C@@H](C)C(N)=O)NC(=O)[C@H](CC2CCC2)NC(=O)[C@H](CCC(N)=O)NC(=O)[C@H](C)NC(=O)[C@H](Cc2c[nH]c3ccccc23)NC(=O)[C@H](Cc2ccc(O)cc2)NC(=O)[C@H](CCC(=O)O)NC1=O)[C@@H](C)O [MP-257] (Ac-[Lys(N3)][βAla]LTF[R8]EYWAQ[Cba][S5]S[Aib]A-NH2; staple 6-13) | 4550 nM | -4.69% | 25 µM (≈ 49.6 µg/mL) | 469 nM | 210 A^2 | 2.97 |  |  |  |  |  |  |  |  |
| CC(=O)N[C@@H](CCCCN=[N+]=[N-])C(=O)NCCC(=O)N[C@@H](C)C(=O)N[C@H](C(=O)N[C@@H](Cc1ccccc1)C(=O)N[C@]1(C)CCCCCCC=CCCC[C@@](C)(C(=O)N[C@@H](CO)C(=O)N[C@@H](C)C(=O)N[C@@H](C)C(N)=O)NC(=O)[C@H](CC2CCC2)NC(=O)[C@H](C)NC(=O)[C@H](C)NC(=O)[C@H](Cc2c[nH]c3ccccc23)NC(=O)[C@H](Cc2ccc(O)cc2)NC(=O)[C@H](C)NC1=O)[C@@H](C)O [MP-209, AZIDE-ATSP-7041 (L1A, E5A, Q9A)] (Ac-[Lys(N3)][βAla]ATF[R8]AYWAA[Cba][S5]SAA-NH2; staple 6-13) |  |  | 2 µM (≈ 3.63 µg/mL) |  | 197 A^2 | 3.32 | > 50600 nM | > 50000 nM | -1.35% | 7.572% | 906 nM |  |  |  |
| CC(=O)N[C@@H](CCCCN=[N+]=[N-])C(=O)NCCC(=O)N[C@@H](CC(C)C)C(=O)N[C@H](C(=O)N[C@@H](Cc1ccccc1)C(=O)N[C@]1(C)CCCCCCC=CCCC[C@@](C)(C(=O)N[C@@H](CO)C(=O)N[C@@H](C)C(=O)N[C@@H](C)C(N)=O)NC(=O)[C@H](CC2CCC2)NC(=O)[C@H](CCC(N)=O)NC(=O)[C@H](C)NC(=O)[C@H](Cc2c[nH]c3ccccc23)NC(=O)[C@H](Cc2ccc(O)cc2)NC(=O)[C@H](CCC(=O)O)NC1=O)C(C)C [MP-258] (Ac-[Lys(N3)][βAla]LVF[R8]EYWAQ[Cba][S5]SAA-NH2; staple 6-13) | > 50600 nM | -5.925% | 79 µM (≈ 155 µg/mL) | 146 nM | 213 A^2 | 2.93 |  |  |  |  |  |  |  |  |
| CC(=O)N[C@@H](CCCCN=[N+]=[N-])C(=O)NCCC(=O)N[C@@H](CO)C(=O)N[C@H](C(=O)N[C@@H](Cc1ccccc1)C(=O)N[C@]1(C)CCCCCCC=CCCC[C@@](C)(C(=O)N[C@@H](CO)C(=O)N[C@@H](CO)C(=O)N[C@@H](CO)C(N)=O)NC(=O)[C@H](CC2CCC2)NC(=O)[C@H](CCC(N)=O)NC(=O)[C@H](CO)NC(=O)[C@H](Cc2c[nH]c3ccccc23)NC(=O)[C@H](Cc2ccc(O)cc2)NC(=O)[C@H](CO)NC1=O)[C@@H](C)O [MP-667] (Ac-[Lys(N3)][βAla]STF[R8]SYWSQ[Cba][S5]SSS-NH2; staple 6-13) | > 50600 nM | 2.286% | 2 µM (≈ 3.9 µg/mL) | 2230 nM | 208 A^2 | 2.5 |  |  |  |  |  |  |  |  |
| CC(=O)N[C@@H](CCCCN=[N+]=[N-])C(=O)NCCC(=O)N[C@@H](CC(C)C)C(=O)N[C@H](C(=O)N[C@@H](Cc1ccccc1)C(=O)N[C@]1(C)CCCCCCC=CCCC[C@@](C)(C(N)=O)NC(=O)[C@H](CC2CCC2)NC(=O)[C@H](CCC(N)=O)NC(=O)[C@H](C)NC(=O)[C@H](Cc2c[nH]c3ccccc23)NC(=O)[C@H](Cc2ccc(O)cc2)NC(=O)[C@H](CCC(=O)O)NC1=O)[C@@H](C)O [MP-326] (Ac-[Lys(N3)][βAla]LTF[R8]EYWAQ[Cba][S5]-NH2; staple 6-13) | 24800 nM | 7.44% | 3 µM (≈ 5.22 µg/mL) | 215 nM | 222 A^2 | 2.88 |  |  |  |  |  |  |  |  |
| CC(C)C[C@@H]1NC(=O)[C@H](C)NC(=O)[C@H](Cc2c[nH]c3ccccc23)NC(=O)[C@H](Cc2ccc(O)cc2)NC(=O)[C@H](CCC(=O)O)NC(=O)[C@](C)(NC(=O)[C@H](Cc2ccccc2)NC(=O)[C@H](CO)NC(=O)[C@@H](NC(=O)CCNC(=O)[C@@H](N)CCCCN=[N+]=[N-])[C@@H](C)O)CCCCCCC=CCCC[C@@](C)(C(N)=O)NC(=O)[C@H](CC(C)C)NC1=O [MP-0177] | > 50600 nM | -0.29% |  | 130 nM | 218 A^2 | 2.7 |  |  |  |  |  | Poorly Behaved |  |  |
| CC(=O)N[C@@H](CCCCN=[N+]=[N-])C(=O)NCCC(=O)N[C@@H](CC(C)C)C(=O)N[C@H](C(=O)N[C@@H](Cc1ccccc1)C(=O)N[C@]1(C)CCCCCCC=CCCC[C@@](C)(C(=O)N[C@@H](CO)C(=O)N[C@@H](C)C(=O)N[C@@H](C)C(N)=O)NC(=O)[C@H](CC2CCC2)NC(=O)[C@H](CCC(N)=O)NC(=O)[C@H](C)NC(=O)[C@H](Cc2c[nH]c3ccccc23)NC(=O)[C@H](Cc2ccccc2)NC(=O)[C@H](CCC(=O)O)NC1=O)[C@@H](C)O [MP-028] (Ac-[Lys(N3)][βAla]LTF[R8]EFWAQ[Cba][S5]SAA-NH2; staple 6-13) | 8430 nM | 33.41% | 6 µM (≈ 11.7 µg/mL) | 46.4 nM | 197 A^2 | 3.2 |  |  |  |  |  |  |  |  |
| CC(=O)N[C@@H](CCCCN=[N+]=[N-])C(=O)NCCC(=O)N[C@@H](CC(C)C)C(=O)N[C@H](C(=O)N[C@@H](Cc1ccccc1)C(=O)N[C@]1(C)CCCCCCC=CCCC[C@@](C)(C(=O)N[C@@H](CO)C(=O)N[C@@H](C)C(=O)N[C@@H](C)C(N)=O)NC(=O)[C@H](CC2CCC2)NC(=O)[C@H](CCC(N)=O)NC(=O)[C@H](C)NC(=O)[C@H](Cc2ccc(Cl)c(Cl)c2)NC(=O)[C@H](Cc2ccc(O)cc2)NC(=O)[C@H](CCC(=O)O)NC1=O)[C@@H](C)O [MP-765] (Ac-[Lys(N3)][βAla]LTF[R8]EY[Phe(3,4-Cl2)]AQ[Cba][S5]SAA-NH2; staple 6-13) | > 50600 nM | 2.873% |  | 1830 nM | 199 A^2 |  |  |  |  |  |  | Poorly Behaved | Poorly Behaved |  |
| CC(=O)N[C@@H](CCCCN=[N+]=[N-])C(=O)NCCC(=O)N[C@@H](CC(C)C)C(=O)N[C@H](C(=O)N[C@@H](Cc1ccccc1)C(=O)N[C@]1(C)CCCCCCC=CCCC[C@@](C)(C(=O)N[C@@H](CO)C(=O)N[C@@H](C)C(=O)N[C@@H](C)C(N)=O)NC(=O)[C@H](CC2CCC2)NC(=O)[C@H](CCC(N)=O)NC(=O)[C@H](CC(C)C)NC(=O)[C@H](Cc2c[nH]c3ccccc23)NC(=O)[C@H](Cc2ccc(O)cc2)NC(=O)[C@H](CC(C)C)NC1=O)[C@@H](C)O [MP-693, AZIDE-ATSP-7041 (E5L, A8L)] (Ac-[Lys(N3)][βAla]LTF[R8]LYWLQ[Cba][S5]SAA-NH2; staple 6-13) |  |  | < 1 µM |  | 196 A^2 | 4.68 | > 50600 nM | > 50000 nM | -2.781% | 12.6% | 290 nM |  |  | 2.92 |
| CC(C)C[C@@H]1NC(=O)[C@H](C)NC(=O)[C@H](Cc2c[nH]c3ccccc23)NC(=O)[C@H](Cc2ccc(O)cc2)NC(=O)[C@H](CCC(=O)O)NC(=O)[C@](C)(NC(=O)[C@H](Cc2ccccc2)NC(=O)[C@H](CO)NC(=O)[C@@H](NC(=O)[C@H](CO)NC(=O)CNC(=O)[C@@H](N)CCCCN=[N+]=[N-])[C@@H](C)O)CCCCCCC=CCCC[C@@](C)(C(N)=O)NC(=O)[C@H](CC(C)C)NC1=O [MP-0179] | > 50600 nM | 3.75% |  | 503 nM | 230 A^2 | 2.57 |  |  |  |  |  | Poorly Behaved |  |  |
| CC(=O)N[C@@H](CCCCN=[N+]=[N-])C(=O)NCCC(=O)N[C@@H](CC(C)C)C(=O)N[C@H](C)C(=O)N[C@@H](Cc1ccccc1)C(=O)N[C@]1(C)CCCCCCC=CCCC[C@@](C)(C(=O)N[C@@H](CO)C(=O)N[C@@H](C)C(=O)N[C@@H](C)C(N)=O)NC(=O)[C@H](CC2CCC2)NC(=O)[C@H](CCC(N)=O)NC(=O)[C@H](C)NC(=O)[C@H](Cc2c[nH]c3ccccc23)NC(=O)[C@H](Cc2ccc(O)cc2)NC(=O)[C@H](CCC(=O)O)NC1=O [MP-7471] (Ac-[Lys(N3)][βAla]L[dA]F[R8]EYWAQ[Cba][S5]SAA-NH2; staple 6-13) | > 50000 nM | 0.465% | 93.5 µM (≈ 181 µg/mL) | > 10000 nM | 229 A^2 | 2.95 |  |  |  |  |  |  |  |  |
